As usually defined, the IC50 is the concentration that inhibits the measured activity by half.

This note sets out measurements from publication PMC4171606, “A novel copper(I) complex induces ER-stress-mediated apoptosis and sensitizes B-acute lymphoblastic leukemia cells to chemotherapeutic agents” (Oncotarget, 2014).

The subject of one assay is XBP1. The assay is described as follows: PCR analysis of XBP1 splicing. Particulars: CP 2.5 μM, 12 h. It is filed as cell-based, human. The procedure: (§1) Moreover we found an increase in CHOP expression starting from 3 h of CP treatment. […] Whilst GRP78, due to its chaperon activity, exerts a protective function, CHOP promotes ER-stress cell death, thus the rapid activation of pro-death signals and the late activation of pro-survival chaperone GRP78 could explain the commitment toward apoptosis induced by CP. Moreover, in unresolvable stress conditions, an increased CHOP expression has been correlated to the induction of the expression of many apoptotic genes and to the down-regulation prosurvival genes, such as Bcl-2 [30].
(§2) FIGURE 4 CP induces ER stress Western Blot analysis showing expression of GRP78 and CHOP in SEM (A) and in RS4;11 (B) cells. Cells were treated with CP 2.5 μM for the indicated times. (C) PCR analysis showing the induction of XBP1 splicing in SEM and RS4;11 cells. Cells were treated with CP (2.5 μM) or Tunicamycin (2 μg/ml) as positive control for 12 h.
Cells were treated with CP and Tunicamycin as positive control, collected, centrifuged and washed with PBS. Total RNA was extracted from cells using Trizol (Life Technologies, Italy) as previously described. Primer pair used to amplified XBP1 isoforms: forward 5'-[…]-3', reverse 5'-[…]-3'. To separate isoforms, PCR products were run in 5% agarose gel.

Another assay concerns CHOP. The assay is described as follows: Western blot, ER stress marker CHOP. It is filed as cell-based, human. To be noted: SEM and RS4;11, CP 2.5 μM. The procedure: as §1, §2
Cells were treated with CP and, after different times, were collected, centrifuged and washed with ice cold phosphate-buffered saline (PBS). The pellet was then resuspended in lysis buffer as described. The protein concentration in the supernatant was determined using the BCA protein assay (Pierce, Italy). […]
(In general: A western blot detects proteins with antibodies after separation by electrophoresis.)

Assay [1] concerns 26S proteasome semipurified from SEM cells, Trypsin-like (T) activity. Description: Proteasome activity on semipurified cell extract (fluorogenic substrate). It is filed as biochemical, human. Particulars: 60 min at 37 °C, cell-free. From the text: (§3) The 26S proteasome is a multicatalytic protease responsible for the regulated intracellular protein degradation. Its function is mediated by three main catalytic activities i) chymotrypsin like (CT) ii) Trypsin-like (T) and iii) peptidyl glutamyl peptide hydrolyzing (PGPH). To evaluate the effect of CP on the proteasome activity in leukemia cells, we tested increasing concentrations of the compound on semipurified 26S proteasome extract from RS4;11 and SEM cells, and measured the functioning of each individual proteolytic activity under cell-free condition.
(§4) FIGURE 3 CP treatment affects Ubiquitin Proteasome System (UPS) 26S proteasome (100 μg) semipurified from (A) SEM and (B) RS4;11 cells was incubated for 60 min at 37 °C with CP at different concentrations. Chymotrypsin (CT), trypsin (T) and peptidyl glutamyl peptide hydrolyzing (PGPH) catalytic activity were measured fluorimetrically (excitation 370, nm emission 460) by following the release of free AMC from synthetic substrates N-Suc-Leu-Leu-Val-Tyr-AMC, Boc-Gln-Ala-Arg-AMC and Z-Leu-Leu-Glu-AMC, specific for CT, T and PGPH activity, respectively. (C) Cells were incubated with CP 2.5 μM for the indicated times and then western blot analyses were performed to evaluate Ubiquitin accumulation.
(§5) RS4;11 and SEM cells were homogenized in a lysis buffer (50 mM Tris-HCl, pH 7.5, 250 mM sucrose, 5 mM MgCl2, 1 mM DTT, 0.5 mM EDTA) and ultracentrifuged for 2 h at 300,000 g. Total protein content was estimated with BioRad protein assay (BioRad) and 100 μg of protein aliquots were incubated for 60 min at 37°C with CP at different concentrations. Afterwards, fluorogenic proteasome substrates (N-Suc-Leu-Leu-Val-Tyr-7-amido-4-methylcoumarin (AMC) for chymotripsin (CT), Boc-Gln-Ala-Arg-AMC for tripsin (T) and Z-Leu-Leu-Glu-AMC for peptidyl glutamyl peptide hydrolyzing (PGPH) were added and the substrate hydrolysis was measured after 30 min by monitoring the release of Tyr-7-amido-4-methylcoumarin (AMC) using a Varian Cary Eclipse (Varian) spectrofluorometer (excitation at 370 nm, emission at 460 nm).

Assay [2] deals with 26S proteasome semipurified from RS4;11 cells, peptidyl glutamyl peptide hydrolyzing (PGPH) activity. Described as above. It counts as biochemical, human. Particulars: RS4;11 extract, 60 min at 37 °C, cell-free.
Description: as §3, §4, §5

Assay [3] relates to 26S proteasome semipurified from RS4;11 cells, Trypsin-like (T) activity. Described as above. It is filed as biochemical, human. To be noted: RS4;11 extract, 60 min at 37 °C, cell-free.
Description: as §3, §4, §5

Assay [4] has as its system 26S proteasome semipurified from SEM cells, chymotrypsin like (CT) activity. The assay is described as above. To be noted: 60 min at 37 °C, cell-free. It is filed as biochemical, human.
Description: as §3, §4, §5

Assay [5] has as its system 26S proteasome semipurified from SEM cells, peptidyl glutamyl peptide hydrolyzing (PGPH) activity. The description is as above. It is filed as biochemical, human. To be noted: 60 min at 37 °C, cell-free.
Description: as §3, §4, §5

Assay [6] concerns 26S proteasome semipurified from RS4;11 cells, chymotrypsin like (CT) activity. Described as above. To be noted: RS4;11 extract, 60 min at 37 °C, cell-free. It counts as biochemical, human.
Description: as §3, §4, §5

Take `F[P-](F)(F)(F)(F)F.OCP(CO)CO.OCP(CO)CO.OCP(CO)CO.OCP(CO)CO.[Cu+]` [CP, [Cu(thp)4][PF6]]: the XBP1 splicing result in the assay on XBP1 is on record as “induced XBP1 splicing in both cell lines”. Further, the “onset of increase in CHOP expression” value in the assay on CHOP was at least 3 h. In addition, the IC50 in assay [1] is about 12 µM; in assay [2], about 10 µM; in assay [3], about 11 µM; in assay [4], about 15 µM; in assay [5], about 16 µM; in assay [6] it was about 18 µM.
